Experimental data as given in article PMC7948422, “Repurposing p97 inhibitors for chemical modulation of the bacterial ClpB–DnaK bichaperone system” (The Journal of Biological Chemistry, 2020).
“Also recorded” adds a separate entry of the source.

Assays:
[1] = biological target: monomeric ClpB; design: method as in PMID 10982797; details: read-out: Kd of monomeric ClpB toward ATP; cited from earlier work
[2] = biological target: T1, wt ClpB (Escherichia coli, UniProt P63284); test: Surface plasmon resonance, immobilized wt ClpB; format: binding; details: SPR, preliminary; read-out: dissociation constant, control titration of immobilized ClpB
T1 construct: made in house
T1 sequence (P63284 whole entry): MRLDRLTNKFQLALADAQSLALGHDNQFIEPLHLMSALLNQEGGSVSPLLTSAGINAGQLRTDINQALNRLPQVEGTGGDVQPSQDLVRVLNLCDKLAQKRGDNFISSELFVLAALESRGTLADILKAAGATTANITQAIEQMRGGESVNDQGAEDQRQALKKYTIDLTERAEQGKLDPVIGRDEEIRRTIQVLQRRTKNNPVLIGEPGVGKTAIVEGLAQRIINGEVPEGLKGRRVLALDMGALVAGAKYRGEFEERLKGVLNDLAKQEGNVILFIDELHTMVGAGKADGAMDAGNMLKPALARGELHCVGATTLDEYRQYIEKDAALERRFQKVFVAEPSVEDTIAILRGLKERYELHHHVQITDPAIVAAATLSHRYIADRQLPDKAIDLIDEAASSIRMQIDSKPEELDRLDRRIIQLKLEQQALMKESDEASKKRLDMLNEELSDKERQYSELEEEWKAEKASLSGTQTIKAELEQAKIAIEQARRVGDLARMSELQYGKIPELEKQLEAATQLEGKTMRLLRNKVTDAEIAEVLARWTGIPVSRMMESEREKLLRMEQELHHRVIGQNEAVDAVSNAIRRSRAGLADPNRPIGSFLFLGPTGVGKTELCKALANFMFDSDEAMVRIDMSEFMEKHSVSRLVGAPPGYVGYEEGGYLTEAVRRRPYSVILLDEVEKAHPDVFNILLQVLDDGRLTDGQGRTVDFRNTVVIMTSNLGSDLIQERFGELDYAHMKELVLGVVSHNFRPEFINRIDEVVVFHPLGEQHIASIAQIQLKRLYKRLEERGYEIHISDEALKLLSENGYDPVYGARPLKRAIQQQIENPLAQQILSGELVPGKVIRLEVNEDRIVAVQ
Description: ClpB, DnaK, and the NBD of DnaK were extensively dialyzed against the SPR buffer (20-mM Hepes, pH 7.4, 150-mM NaCl, 20-mM MgCl2, 1-mM EDTA, 1-mM DTT). After dialysis, the protein concentration was determined by the Bradford method. The DBeQ–protein interactions were studied using a Biacore T200 instrument (GE Healthcare) at 25 °C. The proteins were diluted to 300 μg/ml in 10-mM sodium acetate buffer (pH 5 for ClpB DnaK or pH 4 for NBD) and immobilized on HC1500M sensor chips (Xantec) by standard amine coupling chemistry as described previously ([70]). A reference flow cell was created by ethyl(dimethylaminopropyl) carbodiimide/N-hydroxysuccinimide activation followed by quenching with 1 M ethanolamine (pH 9.0). Solvent correction curves were obtained at the beginning and end and after every 50 injection cycles by injecting varying DMSO concentrations (4.0, 4.4, 4.6, 4.8, 5.0, 5.2, 5.4, and 5.9% [v/v]). All experiments were performed using a flow rate of 30 μl/min.
Binding isotherms were obtained with the ligand diluted to different concentrations in the SPR running buffer HBSMTD (20-mM Hepes, pH 7.4, 140-mM NaCl, 20-mM MgCl2, 5% (v/v) DMSO, 0.005% (v/v) Tween-20). Replicate injections were performed for all samples, and a buffer-only injection was performed for every 12 injection cycles. To test the structural integrity of ClpB after immobilization on the sensor chips, we performed control titrations with ATPγS and adenosine. The dissociation constants determined from those experiments were ∼20 μM for ATPγS and ∼2 mM for adenosine. […] Moreover, the immobilized ClpB discriminated between a nucleotide analog and a nucleoside, which indicated an adequate structural integrity of ClpB on the sensor chips.
The resulting sensorgrams were analyzed using Biacore T200 Evaluation Software v3.0 according to the following procedure. Solvent correction curves were generated and applied to all data sets, and all sensorgrams were double-referenced by subtracting the most recent buffer blank injection. The signal immediately before injection stop of these corrected sensorgrams was treated as the binding response. GraphPad Prism was used for nonlinear least-squares fitting of the model assuming either noncooperative or cooperative binding of DBeQ to DnaK and ClpB, respectively.

[3] = biological target: T2, E. coli ClpB (Escherichia coli, UniProt P63284); format: biochemical; details: 100 μM compound, 37 °C; for inhibition of the basal ClpB ATPase: no casein; for inhibition of the ClpB ATPase in the presence of casein: with κ-casein
T2 construct: made in house
T2 sequence (P63284 whole entry): as above
Description: To determine the ATPase activity, ClpB was diluted to 28 μg/ml (49-nM hexamer) in buffer C (50-mM Tris-HCl, pH 7.4, 20-mM MgCl2, 1-mM EDTA, 0.5-mM tris(2-carboxyethyl)phosphine [TCEP]). In some experiments, the ClpB solution was supplemented with 17.4 μg/ml (10 μM) κ-casein. The ClpB aliquots (18 μl) were mixed with 1 μl of the investigated compounds at different concentrations in 100% DMSO or with DMSO as a control. A sample without ClpB was used as a baseline control. After a 10-min preincubation at 37 or 45 °C, the ATP hydrolysis reaction was initiated by adding 1 μl of 100-mM ATP. The samples were incubated for 60 min (basal ClpB activity in the absence of κ-casein) or 15 min (in the presence of κ-casein) at 37 °C or 30 min at 45 °C in the absence of casein. For the E678Q ClpB variant, the incubation time in the presence of κ-casein was 60 min. After incubation, 15 μl of each sample was mixed with 200 μl of the ammonium molybdate/malachite green reagent ([67]) dispensed into a 96-well plate, followed by an addition of 30 μl of 34% sodium citrate ([68]). The plate was agitated inside a Synergy H1 reader (BioTek, Winooski, VT) for 15 min at room temperature, and the samples’ absorbance was measured at 630 nm. The readouts for ClpB-containing samples were corrected for absorbance of samples without ClpB, to account for nonenzymatic production of inorganic phosphate. A standard curve obtained with different inorganic phosphate concentrations was used to determine the amount of phosphate produced from ATP in the presence of ClpB.

[4] = test system: p97; design: method as in PMID 25685910; details: cited from earlier work

Structure (SMILES): Nc1ncnc2c1ncn2[C@@H]1O[C@H](COP(=O)(O)OP(=O)(O)OP(=O)(O)O)[C@@H](O)[C@H]1O [ATP]
- Kd [1]: > 1000 µM

Structure (SMILES): Nc1ncnc2c1ncn2[C@@H]1O[C@H](CO[P@](=O)(O)O[P@](=O)(O)O[P@@](=O)(O)S)[C@@H](O)[C@H]1O [ATPγS]
- Kd [2]: ~20 µM

Structure (SMILES): COc1cccc2c(NCc3ccccc3)nc(-n3c(N)nc4ccccc43)nc12 [ML240]
- inhibition of the basal ClpB ATPase [3]: None of the above compounds, except C3, showed a significant inhibition
- inhibition of the ClpB ATPase in the presence of casein [3]: loss of potency toward ClpB; also recorded: only C3 and DBeQ strongly inhibited
- IC50 [4]: ~0.1 µM

Structure (SMILES): Cc1cc(OCc2nnc(SC3CCCC3)n2-c2cccnc2)ccc1-c1ccc(S(C)(=O)=O)cc1 [NMS-873]
- inhibition of the basal ClpB ATPase [3]: None of the above compounds, except C3, showed a significant inhibition
- inhibition of the ClpB ATPase in the presence of casein [3]: only C3 and DBeQ strongly inhibited
- IC50 [4]: ~0.02 µM

Structure (SMILES): Nc1ncnc2c1ncn2[C@@H]1O[C@H](CO)[C@@H](O)[C@H]1O [adenosine]
- Kd [2]: ~2000 µM
